This passage reports Ki results from patent US20250320204A1 (RIBOSCIENCE LLC, priority 2023, published 2025).

Molecules are shown by their SMILES. pKi: −log10 of the molar value.

The test deals with T1, ENPP1 (Homo sapiens, UniProt P22413).
T1 sequence (P22413 1-925): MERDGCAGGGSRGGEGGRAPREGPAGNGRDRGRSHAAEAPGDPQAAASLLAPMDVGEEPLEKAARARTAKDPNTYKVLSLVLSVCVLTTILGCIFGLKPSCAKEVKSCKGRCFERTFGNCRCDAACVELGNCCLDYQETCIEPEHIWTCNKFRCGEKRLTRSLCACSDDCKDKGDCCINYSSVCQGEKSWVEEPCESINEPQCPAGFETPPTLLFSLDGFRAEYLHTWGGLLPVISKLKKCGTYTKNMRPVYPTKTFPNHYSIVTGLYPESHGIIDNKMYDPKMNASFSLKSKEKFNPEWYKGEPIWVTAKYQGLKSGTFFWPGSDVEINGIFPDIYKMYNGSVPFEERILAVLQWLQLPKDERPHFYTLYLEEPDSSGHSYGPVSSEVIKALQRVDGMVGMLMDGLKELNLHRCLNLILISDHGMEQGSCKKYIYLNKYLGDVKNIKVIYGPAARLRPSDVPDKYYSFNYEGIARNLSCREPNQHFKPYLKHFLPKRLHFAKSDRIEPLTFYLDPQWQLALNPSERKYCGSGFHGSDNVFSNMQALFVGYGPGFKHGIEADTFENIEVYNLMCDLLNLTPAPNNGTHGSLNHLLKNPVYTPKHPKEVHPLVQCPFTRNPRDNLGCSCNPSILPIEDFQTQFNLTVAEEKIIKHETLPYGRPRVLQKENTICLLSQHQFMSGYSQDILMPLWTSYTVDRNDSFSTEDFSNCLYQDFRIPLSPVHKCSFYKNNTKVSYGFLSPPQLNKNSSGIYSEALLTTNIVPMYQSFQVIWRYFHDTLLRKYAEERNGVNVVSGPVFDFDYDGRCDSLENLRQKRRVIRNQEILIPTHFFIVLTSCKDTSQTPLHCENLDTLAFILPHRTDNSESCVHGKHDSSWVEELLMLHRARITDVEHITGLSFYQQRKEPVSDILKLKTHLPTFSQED
Put plainly: Measurement of pNP-TMP hydrolysis by ENPP1. The following applies: pNP-TMP substrate 500 μM, Km 232 μM; Ki from IC50 by Cheng-Prusoff. The test is classed as biochemical. How it is done: Measurement of pNP-TMP hydrolysis by ENPP1
p-Nitrophenyl thymidine 5′-monophosphate (pNP-TMP) is a synthesized substrate for ENPP1. The ENPP1 enzyme activity assay with pNP-TMP substrate was conducted as follows:
First, in a 60 μl reaction, 7.5 ng purified ENPP1 was mixed with 1.2 μl compounds of Formula (I) (test compound) ranging from 13.7 nM to 10 μM. Incubation of ENPP1 with compounds was set at 25° C. for 10 min. Reactions with DMSO only (with ENPP1 but no compound) gave the fastest reaction (MAX Activity). For each compound dilution, wells with assay buffer (50 mM Tris -HCl, pH8.8, 250 mM NaCl, 0.1 mg/ml BSA) and test compounds but no ENPP1 were included as controls for the subtraction of test compound derived absorbance at 405 nm.
Second, after 10 minutes incubation of ENPP1 and test compound, the assay was initiated by transferring 50 μl of the above mentioned ENPP1/test compound reaction into 50 μl of 1 mM pNP-TMP in assay buffer results in a 100 μl total reaction in non-binding surface clear bottom 96 well plates. Absorbance at 405 nm was recorded immediately in kinetic mode by PerkinElmer 2300 Enspire multimode plate reader.
For each inhibitor, the specific ENPP1 activity was calculated using the following equation: ENPP1 activity (pmol/min/μg)=Adjusted Vmax (OD405 nm/min) X conversion factor (pmol/OD405 nm)/amount of enzyme (μg)
Adjusted Vmax=V0X (Km+(S))/(S). In this assay, Km=232 μM, (S)=500 μM. Adjusted Vmax=1.464 X V0.
V0=(OD405 nm with ENPP1-OD405 nm ENPP1 blank)/minutes. OD405 nm was plotted, with blank subtracted, against time (minutes), the initial linear rate is V0.
The conversion factor (pmol/OD405 nm), was determined by plotting the amount of standard, 4-Nitrophenol (Sigma -Aldrich, Catalog #241326), against absorbance at 405 nm. The slope is the conversion factor. The percent ENPP1 activity for each sample was calculated using the following equation: […]
To determine the IC50 for each compound, compound concentration values and percent enzyme activity values were inserted into GraphPad Prism (GraphPad Prism version 9.0 for Windows, GraphPad Software, La Jolla California USA, www.graphpad.com), and Prism's Transform analysis was used to convert the x-axis values (compound concentration) to logarithms. A sigmoidal variable slope nonlinear regression analysis was performed using the following equation: Y=Bottom+ (Top-Bottom)/(1+10^((Log IC50″X) *HillSlope)).
Ki values for each compound were calculated from the observed IC50 from GraphPad analysis using the Cheng-Prusoff equation: Ki=IC50/(1+(S)/KM). (S) here is 500 μM and KM is determined to be 232 μM.
By pKi is commonly meant −log10 of the Ki, conventionally taken in molar units. Low values mean a high Ki, high ones a low Ki. `CS(=N)(=O)CCC1CCN(c2ccnc3c(OCF)nccc23)CC1` (stereo not drawn) [Example 65, (2-(1-(8-(fluoromethoxy)-1,7-naphthyridin-4-yl)piperidin-4-yl)ethyl)-(imino)(methyl)-lambda6-sulfanone]: the pKi was greater than 8.00.
`COc1nccc2c(OCc3cccc([S@@](=N)(=O)C(C)(C)C)c3)ccnc12` [Example 74, (S)-tert-butyl(imino) (3-(((8-methoxy-1,7-naphthyridin-4-yl)oxy)methyl)phenyl)-lambda6-sulfanone] gave a pKi greater than 8.00.
To `N=[S@](=O)(c1cccc(COc2ccnc3c(OCF)nccc23)c1)C1CC1` (single isomer, unassigned) [Example 42] belongs 7.00 to 8.00; to `COc1nccc2c(OCc3cc(F)cc([S@](C)(=N)=O)c3)ccnc12` (single isomer, unassigned) [Example 70], 7.00 to 8.00; to `COc1nccc2c(Oc3ccc(S(C)(=N)=O)cc3)ccnc12` (stereo not drawn) [Example 50, imino (4-((8-methoxy-1,7-naphthyridin-4-yl)oxy)phenyl)(methyl)-lambda6-sulfanone], greater than 8.00.
To `CN=S(C)(=O)N1CCC2(CCN(c3ccnc4c(OC)nccc34)C2)CC1` (stereo not drawn) [Example 53, ((2-(8-methoxy-1,7-naphthyridin-4-yl)-2,8-diazaspiro(4.5)decan-8-yl)(methyl)oxo-lambda6-sulfanylidene)(methyl)amine] belongs 5.00 to 7.00; to `COc1nccc2c(N3CCC(O)(CS(=N)(=O)C4CC4)CC3)ccnc12` (stereo not drawn) [Example 4, cyclopropyl((4-hydroxy-1-(8-methoxy-1,7-naphthyridin-4-yl)piperidin-4-yl)-methyl) (imino)-lambda6-sulfanone], greater than 8.00.
Under `COc1nccc2c(OCc3cc(S(=N)(=O)C4CC4)ccc3F)ccnc12` (stereo not drawn) [Example 59, cyclopropyl(4-fluoro-3-(((8-methoxy-1,7-naphthyridin-4-yl)oxy)methyl)-phenyl) (imino)-lambda6-sulfanone] stands greater than 8.00; under `COc1nccc2c(N3CCC4(C3)CN(S(C)(=N)=O)C4)ccnc12` (stereo not drawn) [Example 44, 8-methoxy-4-(2-(S-methylsulfonimidoyl)-2,6-diazaspiro(3.4)octan-6-yl)-1,7-naphthyridine], greater than 8.00; under `CN=S(C)(=O)N1CCC2(CCN(c3ccnc4c(OC)nccc34)C2)C1` (stereo not drawn) [Example 54, ((7-(8-methoxy-1,7-naphthyridin-4-yl)-2,7-diazaspiro(4.4)nonan-2-yl)(methyl)oxo-lambda6-sulfanylidene)(methyl)amine], 5.00 to 7.00.
Regarding `CN=S(=O)(c1cccc(COc2ccnc3c(OC)nccc23)c1)C1CC1` (stereo not drawn) [Example 55, cyclopropyl(3-(((8-methoxy-1,7-naphthyridin-4-yl)oxy)methyl)phenyl)(methylimino)-lambda6-sulfanone], the pKi is 5.00 to 7.00.
Regarding `COc1nccc2c(OCc3cccc([S@](=N)(=O)C(C)(C)C)c3)ccnc12` [Example 76, (R)-tert-butyl(imino) (3-(((8-methoxy-1,7-naphthyridin-4-yl)oxy)methyl)phenyl)-lambda6-sulfanone], the negative-log Ki (pKi) was 7.00 to 8.00.
Turning to `C[S@@](=N)(=O)c1cccc(COc2ccnc3c(OCF)nccc23)c1` (single isomer, unassigned) [Example 78], the pKi was 7.00 to 8.00.
For the compound `CCCOc1nccc2c(OCc3cccc(S(=N)(=O)C4CC4)c3)ccnc12` (stereo not drawn) [Example 62, cyclopropyl(imino) (3-(((8-propoxy-1,7-naphthyridin-4-yl)oxy)methyl)phenyl)-lambda6-sulfanone], the pKi is 5.00 to 7.00.
In the case of `COc1nccc2c(N3CC(CCCS(C)(=N)=O)C3)ccnc12` (stereo not drawn) [Example 3, imino (3-(1-(8-methoxy-1,7-naphthyridin-4-yl)azetidin-3-yl)propyl)(methyl)-lambda6-sulfanone], the pKi was greater than 8.00.
Under `COc1nccc2c(OCc3cc(F)cc([S@](=N)(=O)C4CC4)c3)ccnc12` (single isomer, unassigned) [Example 68] stands greater than 8.00; under `CS(=N)(=O)CC1CC2(C1)CN(c1ccnc3cnccc13)C2` (stereo not drawn) [Example 1, imino(methyl) [[2-(1,7-naphthyridin-4-yl)-2-azaspiro[3.3]heptan-6-yl]methyl]-lambda6-sulfanone], greater than 8.00; under `COc1nccc2c(OCc3cccc([S@@](C)(=N)=O)c3)ccnc12` [Example 75, (S)-imino (3-(((8-methoxy-1,7-naphthyridin-4-yl)oxy)methyl)phenyl)(methyl)-lambda6-sulfanone], greater than 8.00.
The compound `CN=S(=O)(c1cccc(COc2ncnc3c(OC)nccc23)c1)C1CC1` (stereo not drawn) [Example 56, cyclopropyl(3-(((8-methoxypyrido[3,4-d]pyrimidin-4-yl)oxy)methyl)phenyl)-(methylimino)-lambda6-sulfanone] gave a pKi of 5.00 to 7.00.
Under `CN=S(C)(=O)CC1CC2(C1)CN(c1ccnc3c(OC)nccc13)C2` (stereo not drawn) [Example 58, ((2-(8-methoxy-1,7-naphthyridin-4-yl)-2-azaspiro(3.3)heptan-6-yl)methyl-methyl)(methylimino)-lambda6-sulfanone] stands 5.00 to 7.00; under `CS(=N)(=O)CCC1(O)CCN(c2ccnc3c(OCF)nccc23)CC1` (stereo not drawn) [Example 63, (2-(1-(8-(fluoromethoxy)-1,7-naphthyridin-4-yl)-4-hydroxypiperidin-4-yl)ethyl)-(imino)(methyl)-lambda6-sulfanone], 7.00 to 8.00; under `COc1nccc2c(N3CC4(CCN(S(C)(=N)=O)C4)C3)ccnc12` (stereo not drawn) [Example 45, 8-methoxy-4-(6-(S-methylsulfonimidoyl)-2,6-diazaspiro(3.4)octan-2-yl)-1,7-naphthyridine], greater than 8.00.
Turning to `CCOc1nccc2c(N3CCC(O)(CS(C)(=N)=O)CC3)ccnc12` (stereo not drawn) [Example 46, ((1-(8-ethoxy-1,7-naphthyridin-4-yl)-4-hydroxypiperidin-4-yl)methyl) (imino)-(methyl)-lambda6-sulfanone], the negative-log Ki (pKi) was greater than 8.00.
To `CS(=N)(=O)CC1CC2(C1)CN(c1ncnc3c(O)nccc13)C2` (single isomer, unassigned) [Example 2b, ((2-(8-hydroxypyrido[3,4-d]pyrimidin-4-yl)-2-azaspiro[3.3]heptan-6-yl)methyl) (imino)(methyl)-lambda6-sulfanone] belongs 7.00 to 8.00; to `COc1nccc2c(OCc3cccc([S@@](=N)(=O)C(C)C)c3)ccnc12` [Example 84, (S)-imino(isopropyl)(3-(((8-methoxy-1,7-naphthyridin-4-yl)oxy)methyl)phenyl)-lambda6-sulfanone], greater than 8.00; to `CN=S(C)(=O)CC1(O)CCN(c2ccnc3c(OC)nccc23)CC1` (stereo not drawn) [Example 57, ((4-hydroxy-1-(8-methoxy-1,7-naphthyridin-4-yl)piperidin-4-yl)methyl)(methyl)-(methylimino)-lambda6-sulfanone], greater than 8.00.
On to `CS(=N)(=O)c1ccc(COc2ccnc3cnccc23)cc1` (stereo not drawn) [Example 7], for which the pKi is 7.00 to 8.00.
